We go through 26 compounds from PMC7560456, “Synthesis, Selected Transformations, and Biological Activity of Alkoxy Analogues of Lepidilines A and C” (Materials, 2020).

Entries after “also recorded” stand apart in the source; their conditions may differ. Where a name gives a salt, the structure may show the parent alone.

One data set has as its system HL-60 cells. Kind of data set: MTT in vitro cytotoxicity assay, HL-60. The data set is classed as cell-based. The settings on record: concentration required to inhibit metabolic activity by 50%, mean ± SEM. As to the method:
(§1) The promyelocytic leukemia HL-60 and breast cancer adenocarcinoma MCF-7 cell lines were purchased from the European Collection of Cell Cultures (ECACC). […] MCF-7 cells were maintained in Minimum Essential Medium Eagle (Sigma Aldrich, St. Louis, MO, USA) supplemented with 2 mM glutamine and MEM nonessential amino-acid solution (Sigma Aldrich, St. Louis, MO, USA). Both media were supplemented with 10% heat-inactivated fetal bovine serum (Biological Industries, Beit-Haemek, Israel) and antibiotics (100 U/mL penicillin and 100 μg/mL streptomycin) (Sigma-Aldrich, St. Louis, MO, USA). Human umbilical vein endothelial cells (HUVECs) and human mammary gland/breast cell line MCF-10A were purchased from the American Type Culture Collection (ATCC). HUVECs were cultured using the EGM-2 Endothelial Medium BulletKit, whereas MCF-10A was cultured using the MEGM Mammary Epithelial BulletKit, both purchased from Lonza (Lonza, Walkersville, MD, USA).
(§2) The MTT (3-(4, 5-dimethylthiazol-2-yl)-2, 5-diphenyltetrazolium bromide) assay was performed according to the known procedure. Cells were seeded into 24-well plates at a density of 8 × 10^4/mL and left to grow for 24 h. After being cultured for 48 h with various concentrations of the tested compounds, cells were incubated with MTT solution (5 mg/mL in phosphate-buffered saline) for 2 h. Then, the plates were centrifuged and the supernatant was discarded. Dimethyl sulfoxide (DMSO; 1 mL) was added to each well to dissolve the blue formazan product, whose absorbance was measured at 560 nm using a FlexStation 3 Multi-Mode Microplate Reader (Molecular Devices, LLC, CA, USA). The untreated cells were used as control. The data were expressed as mean ± SEM of three independent experiments.

The next data set relates to MCF-7 cells. Kind of data set: MTT in vitro cytotoxicity assay, MCF-7. The data set is classed as cell-based. The settings on record: concentration required to inhibit metabolic activity by 50%, mean ± SEM. As to the method: as §1, §2
In the next data set the test system is HUVECs. The experiment in a line: MTT in vitro cytotoxicity assay, HUVEC (normal cells). The conditions noted are these: 48 h, mean ± SEM. The data set is classed as cell-based, human. As to the method: as §1, §2
For the next data set, the system named is MCF-10A cells. The experiment in a line: MTT in vitro cytotoxicity assay, MCF-10A (normal cells). The conditions noted are these: 48 h, mean ± SEM. The data set is classed as cell-based, human. As to the method:
as §1, §2

Another data set relates to FDIGROV cell line. Also on record: method as in PMID 12932133. The conditions noted are these: ovarian carcinoma; cited from earlier work.
The subject of a further data set is UMUC3 cell line. Further details: method as in PMID 12932133. The settings on record: bladder carcinoma; cited from earlier work.
The subject of a further data set is PACA2 cell line. Further details: method as in PMID 12932133. The conditions noted are these: pancreatic adenocarcinoma; cited from earlier work.
The next data set has as its system MDA231 cell line. Further details: method as in PMID 12932133. The conditions noted are these: breast carcinoma; cited from earlier work.

By IC50 is commonly meant the concentration that gives 50% inhibition. Take “1-Adamantyloxy-3-(4-methylbenzyloxy)-4,5-dimethylimidazolium bromide [5j]”: the IC50 was 390 ± 10 nM in the data set with HL-60 cells (48 h), 2630 ± 30 nM in the data set with MCF-7 cells (48 h), 1940 ± 10 nM in the data set on HUVECs and 1690 ± 40 nM in the data set with MCF-10A cells.
Usually melting point stands for the temperature of the solid-liquid transition. `Cc1ccc(COn2c[n+](OCc3ccc(C)cc3)c(C)c2C)cc1.[Br-]` [5c, 1,3-Di-(4-methylbenzyloxy)-4,5-dimethylimidazolium bromide]: the melting point lay within 111 to 113 °C. In the data set on HL-60 cells (Homo sapiens, HL-60, 48 h), inhibition was half-maximal at 4880 ± 180 nM (IC50). In addition, the IC50 in the data set with MCF-7 cells (Homo sapiens, MCF7, 48 h) came to 24200 ± 460 nM.
The compound `Cc1cc(C)cc(COn2c[n+]([O-])c(C)c2C)c1` [3f, 1-(3,5-Dimethylbenzyloxy)-4,5-dimethyl-1H-imidazole 3-oxide] came in with a melting point of 96 to 98 °C.
Still for that read-out and setting: for `Cc1c(C)n(OCc2ccccc2)c(=S)n1Cc1ccccc1` [7a, 1-Benzyl-3-benzyloxy-4,5-dimethylimidazole-2-thione] the value was 116 to 117 °C.
With `Cc1cc(C)cc(CO[n+]2cn(OC34CC5CC(CC(C5)C3)C4)c(C)c2C)c1` [6b, 1-Adamantyloxy-3-(3,5-dimethylbenzyloxy)-4,5-dimethylimidazolium hexafluorophosphate], the IC50 in the data set with HL-60 cells (Homo sapiens, HL-60, 48 h) was determined as 370 ± 10 nM; with MCF-7 cells (Homo sapiens, MCF7, 48 h), 2520 ± 30 nM.
As for `Cc1c(C)[n+](OCc2ccccc2)cn1OCc1ccccc1.[Br-]` [5a, 1,3-Dibenzyloxy-4,5-dimethylimidazolium bromide], the melting point was in the range of 110 to 111 °C.
Take `Cc1c(C)[n+](Cc2ccccc2)cn1Cc1ccccc1` [lepidiline A]: the “activity against FDIGROV cell line” value in the data set on FDIGROV cell line is “some activity”.
With `Cc1ccc(CO[n+]2cn(OCc3ccccc3)c(C)c2C)cc1.[Br-]` [5f, 1-Benzyloxy-3-(4-methylbenzyloxy)-4,5-dimethylimidazolium bromide], the melting point was 124 to 126 °C. The compound further displayed an IC50 in the data set on HL-60 cells (Homo sapiens, HL-60, 48 h) of 2910 ± 80 nM. In the data set on MCF-7 cells (Homo sapiens, MCF7, 48 h), this compound had an IC50 of 16600 ± 1060 nM.
With `c1ccc(CO[n+]2cn(Cc3ccccc3)c(-c3ccccc3)c2-c2ccccc2)cc1` (as salt: phosphate) [6a, 1-Benzyl-3-benzyloxy-4,5-diphenylimidazolium hexafluorophosphate], the melting point lay in the range of 163 to 166 °C.
For `Cc1ccccc1COn1c[n+](OCc2ccccc2C)c(C)c1C.[Br-]` [5b, 1,3-Di-(2-methylbenzyloxy)-4,5-dimethylimidazolium bromide], the melting point fell in the range of 132 to 133 °C. Further, the IC50 in the data set on HL-60 cells (Homo sapiens, HL-60, 48 h) was determined as 1540 ± 10 nM. The compound also yielded a half-inhibitory concentration (IC50) in the data set on MCF-7 cells (Homo sapiens, MCF7, 48 h) of 8300 ± 10 nM.
For `c1ccc(CO[n+]2cn(Cc3ccccc3)c(-c3ccccc3)c2-c2ccccc2)cc1` [6a, 1-Benzyl-3-benzyloxy-4,5-diphenylimidazolium hexafluorophosphate], the IC50 in the data set on HL-60 cells (Homo sapiens, HL-60, 48 h) was 640 ± 20 nM; in the data set on MCF-7 cells (Homo sapiens, MCF7, 48 h), 1290 ± 10 nM.
Turning to `Cc1c(C)[n+]([O-])cn1OCc1ccccc1` [3c, 1-Benzyloxy-4,5-dimethyl-1H-imidazole 3-oxide], the melting point fell in the range of 103 to 105 °C.
Regarding `Cc1ccccc1CO[n+]1cn(OCc2ccccc2)c(C)c1C` [5e, 1-Benzyloxy-3-(2-methylbenzyloxy)-4,5-dimethylimidazolium bromide], the IC50 in the data set on HL-60 cells (Homo sapiens, HL-60, 48 h) worked out at 3160 ± 180 nM; in the data set on MCF-7 cells (Homo sapiens, MCF7, 48 h), 11600 ± 250 nM.
`Cc1ccc(COn2c[n+]([O-])c(C)c2C)cc1` [3e, 1-(4-Methylbenzyloxy)-4,5-dimethyl-1H-imidazole 3-oxide] had a melting point of 101 to 102 °C.
The compound `[Br-].c1ccc(CO[n+]2cn(Cc3ccccc3)c(-c3ccccc3)c2-c2ccccc2)cc1` [4b, 1-Benzyl-3-benzyloxy-4,5-diphenylimidazolium bromide] showed a melting point of 167 to 169 °C. The IC50 in the data set with HL-60 cells (48 h) is 700 ± 30 nM. The IC50 in the data set with MCF-7 cells (48 h) came out at 1530 ± 90 nM. Moreover, in the data set with HUVECs (Homo sapiens, HUVEC), the IC50 was 970 ± 30 nM. Further, the IC50 in the data set on MCF-10A cells (Homo sapiens, MCF-10A) is 570 ± 10 nM.
In the case of `Cc1cc(C)cc(COn2c[n+](OCc3cc(C)cc(C)c3)c(C)c2C)c1.[Br-]` [5d, 1,3-Di-(3,5-dimethylbenzyloxy)-4,5-dimethylimidazolium bromide], the melting point is 141 to 143 °C. In the data set on HL-60 cells (Homo sapiens, HL-60, 48 h), this compound gave an IC50 of 1460 ± 20 nM. The IC50 in the data set on MCF-7 cells (Homo sapiens, MCF7, 48 h) turned out to be 8570 ± 370 nM.
“1-Adamantyloxy-3-(2-methylbenzyloxy)-4,5-dimethylimidazolium bromide [5i]”: the IC50 stood at 670 ± 10 nM with HL-60 cells (48 h), 5950 ± 350 nM with MCF-7 cells (48 h) and 3960 ± 80 nM in the data set on HUVECs.
Turning to “1-Adamantyloxy-3-benzyloxy-4,5-dimethylimidazolium bromide [5h]”, the IC50 in the data set on HL-60 cells (48 h) came out at 880 ± 80 nM; in the data set with MCF-7 cells (48 h), 6760 ± 80 nM; with HUVECs, 3700 ± 230 nM; in the data set with MCF-10A cells, 6400 ± 30 nM.
`Cc1[nH]c(C23CC4CC(CC(C4)C2)C3)[n+](OCc2ccccc2)c1C.[Br-]` [4c, 1-Adamantyl-3-benzyloxy-4,5-dimethylimidazolium bromide] registered a melting point of 196 to 197 °C.
Still for that read-out and setting: next, `Cc1c(C)n(OCc2ccccc2)c(=S)n1OCc1ccccc1` [7c, 1,3-Dibenzyloxy-4,5-dimethylimidazole-2-thione]: 87 to 88 °C.
Same read-out and setting: for `Cc1ccccc1COn1c[n+]([O-])c(C)c1C` [3d, 1-(2-Methylbenzyloxy)-4,5-dimethyl-1H-imidazole 3-oxide] the value was 89 to 91 °C.
In the case of `Cc1c(C)[n+](Cc2ccccc2)c(C)n1Cc1ccccc1` [lepidiline B], in the data set on FDIGROV cell line, the “activity against FDIGROV cell line” value is “some activity; also recorded: highly cytotoxic”. For the same compound, the “activity against UMUC3 cell line” value in the data set on UMUC3 cell line was “promising activity; also recorded: highly cytotoxic”. The “activity against PACA2 cell line” value with PACA2 cell line is recorded as “promising activity; also recorded: highly cytotoxic”. In addition, in the data set on MDA231 cell line, the “activity against MDA231 cell line” value is on record as “promising activity; also recorded: highly cytotoxic”.
As for `Cc1cc(C)cc(CO[n+]2cn(OC34CC5CC(CC(C5)C3)C4)c(C)c2C)c1` (as salt: phosphate) (hydrate or solvate) [6b, 1-Adamantyloxy-3-(3,5-dimethylbenzyloxy)-4,5-dimethylimidazolium hexafluorophosphate], the melting point is 150 to 152 °C.
The same measure, in the same setting: for `Cc1c(C)[n+](OCc2ccccc2)cn1Cc1ccccc1.[Br-]` [4a, 1-Benzyl-3-benzyloxy-4,5-dimethylimidazolium bromide] the value was 148 to 150 °C.
Regarding “1-Adamantyloxy-3-(3,5-dimethylbenzyloxy)-4,5-dimethylimidazolium bromide [5k]”, the 50% inhibitory concentration (IC50) with HL-60 cells (48 h) is 360 ± 10 nM; in the data set with MCF-7 cells (48 h), 2400 ± 60 nM; in the data set with HUVECs, 1820 ± 80 nM; with MCF-10A cells, 1360 ± 10 nM.
The compound `[Br-].c1ccc(CO[n+]2c(C34CC5CC(CC(C5)C3)C4)[nH]c(-c3ccccc3)c2-c2ccccc2)cc1` [4d, 1-Adamantyl-3-benzyloxy-4,5-diphenylimidazolium bromide] returned a melting point of 180 to 182 °C.
